These results are taken from patent US20070232615A1, “Chemical Compounds” (priority 2004, published 2007).

Structures are written as SMILES.

This assay deals with HIV. Nature of the assay: HOS HIV infectivity assay (Table 2, strain not given). The note with it: Human immunodeficiency virus 1, read-out: Activity Level. Type of assay: cell-based. The procedure: HOS HIV-1 Infectivity Assay
Compounds were profiled against two HIV-1 viruses, the M-tropic (CCR5 utilizing) Ba-L strain and the T-tropic (CXCR4 utilizing) IIIB strain. Both viruses were propagated in human peripheral blood lymphocytes. Compounds were tested for there ability to block infection of the HOS cell line (expressing hCXCR4/hCCR5/hCD4/pHIV-LTR-luciferase) by either HIV-1 Ba-L or HIV-1 IIIB. Compound cytotoxicity was also examined in the absence of virus addition.
HOS HIV-1 Infectivity Assay Format
HOS cells (expressing hCXCR4/hCCR5/hCD4/pHIV-LTR-luciferase) were harvested and diluted in Dulbeccos modified Eagles media supplemented with 2% FCS and non-essential amino acid to a concentration of 60,000 cells/ml. The cells were plated into 96-well plates (100 ul per well) and the plates were placed in a tissue culture incubator (37° C.; 5% CO2/95% air) for a period of 24 h.
Subsequently, 50 ul of the desired drug solution (4 times the final concentration) was added to each well and the plates were returned to the tissue culture incubator (37° C.; 5% CO2/95% air) for 1 h. Following this incubation 50 ul of diluted virus was added to each well (approximately 2 million RLU per well of virus). The plates were returned to the tissue culture incubator (37° C.; 5% CO2/95% air) and were incubated for a further 96 h.
Following this incubation the endpoint for the virally infected cultures was quantified following addition of Steady-Glo Luciferase assay system reagent (Promega, Madison, Wis.). Cell viability or non-infected cultures was measured using a CellTiter-Glo luminescent cell viability assay system (Promega, Madison, Wis.). All luminescent readouts are performed on a Topcount luminescence detector (Packard, Meridien, Conn.).
With `CN(Cc1cn2c(NC(=O)c3ccncc3)cccc2n1)C1CCCc2cccnc21` (stereo not drawn) [Example 45, N-(2-{[Methyl(5,6,7,8-tetrahydro-8-quinolinyl)amino]methyl}imidazo[1,2-a]pyridin-5-yl)-4-pyridinecarboxamide], the IC50 was in the range of 500 to 10000 nM.

For the molecule `CN1CCN(c2cccc3nc(CN(C)C4CCc5cccnc54)cn23)CC1` (stereo not drawn) [Example 46, N-Methyl-N-{[5-(4-methyl-1-piperazinyl)imidazo[1,2-a]pyridin-2-yl]methyl}-6,7-dihydro-5H-cyclopenta[b]pyridin-7-amine], the IC50 is under 100 nM.

Turning to `CN1CCN(c2cccc3nc(CN(C)C4CCCCc5cccnc54)cn23)CC1` (stereo not drawn) [Example 47, N-Methyl-N-{[5-(4-methyl-1-piperazinyl)imidazo[1,2-a]pyridin-2-yl]methyl}-6,7,8,9-tetrahydro-5H-cyclohepta[b]pyridin-9-amine], the IC50 is under 100 nM.

Take `COc1ccc([C@H](C)N(Cc2cn3c(N4CCN(C)CC4)cccc3n2)[C@H]2CCCc3cccnc32)cc1` [Example 48, (8S)—N-{(1S)-1-[4-(Methyloxy)phenyl]ethyl}-N-{[5-(4-methyl-1-piperazinyl)imidazo[1,2-a]pyridin-2-yl]methyl}-5,6,7,8-tetrahydro-8-quinolinamine]: the IC50 was 100 to 500 nM.

On to `CN1CCN(c2cccc3nc(CN(C)[C@H]4CCCc5cccnc54)cn23)CC1` [Example 50, (8S)—N-Methyl-N-{[5-(4-methyl-1-piperazinyl)imidazo[1,2-a]pyridin-2-yl]methyl}-5,6,7,8-tetrahydro-8-quinolinamine], for which the IC50 is under 100 nM.

`CN1CCN(c2cccc3nc(CN(C)[C@@H]4CCCc5cccnc54)cn23)CC1` [Example 52, (8R)—N-Methyl-N-{[5-(4-methyl-1-piperazinyl)imidazo[1,2-a]pyridin-2-yl]methyl}-5,6,7,8-tetrahydro-8-quinolinamine]: the IC50 is under 100 nM.

With `CC(C)CN(Cc1cn2c(N3CCN(C)CC3)cccc2n1)[C@H]1CCCc2cccnc21` [Example 53, (8S)—N-{[5-(4-Methyl-1-piperazinyl)imidazo[1,2-a]pyridin-2-yl]methyl}-N-(2-methylpropyl)-5,6,7,8-tetrahydro-8-quinolinamine], the IC50 was under 100 nM.

Regarding `CCN(Cc1cn2c(N3CCN(C)CC3)cccc2n1)[C@H]1CCCc2cccnc21` [Example 54, (8S)—N-Ethyl-N-{[5-(4-methyl-1-piperazinyl)imidazo[1,2-a]pyridin-2-yl]methyl}-5,6,7,8-tetrahydro-8-quinolinamine], the IC50 was under 100 nM.

Take `CC(C)N(Cc1cn2c(N3CCN(C)CC3)cccc2n1)[C@H]1CCCc2cccnc21` [Example 55, (8S)—N-(1-Methylethyl)-N-{[5-(4-methyl-1-piperazinyl)imidazo[1,2-a]pyridin-2-yl]methyl}-5,6,7,8-tetrahydro-8-quinolinamine]: the IC50 is under 100 nM.

Turning to `CCCN(Cc1cn2c(N3CCN(C)CC3)cccc2n1)[C@H]1CCCc2cccnc21` [Example 56, (8S)—N-{[5-(4-Methyl-1-piperazinyl)imidazo[1,2-a]pyridin-2-yl]methyl}-N-propyl-5,6,7,8-tetrahydro-8-quinolinamine], the IC50 is under 100 nM.

Turning to `CN1CCN(c2cccc3nc(CN(CC4CC4)[C@H]4CCCc5cccnc54)cn23)CC1` [Example 57, (8S)—N-(Cyclopropylmethyl)-N-{[5-(4-methyl-1-piperazinyl)imidazo[1,2-a]pyridin-2-yl]methyl}-5,6,7,8-tetrahydro-8-quinolinamine], the IC50 is under 100 nM.

As to `CCCCN(Cc1cn2c(N3CCN(C)CC3)cccc2n1)[C@H]1CCCc2cccnc21` [Example 58, (8S)—N-Butyl-N-{[5-(4-methyl-1-piperazinyl)imidazo[1,2-a]pyridin-2-yl]methyl}-5,6,7,8-tetrahydro-8-quinolinamine], the IC50 was under 100 nM.

Regarding `CN1CCN(c2cccc3nc(CN(Cc4ccccc4)[C@H]4CCCc5cccnc54)cn23)CC1` [Example 59, (8S)—N-{[5-(4-Methyl-1-piperazinyl)imidazo[1,2-a]pyridin-2-yl]methyl}-N-(phenylmethyl)-5,6,7,8-tetrahydro-8-quinolinamine], the IC50 is under 100 nM.

In the case of `CN1CCN(c2cccc3nc(CN(Cc4ccccc4F)[C@H]4CCCc5cccnc54)cn23)CC1` [Example 60, (8S)—N-[(2-Fluorophenyl)methyl]-N-{[5-(4-methyl-1-piperazinyl)imidazo[1,2-a]pyridin-2-yl]methyl}-5,6,7,8-tetrahydro-8-quinolinamine], the IC50 is under 100 nM.

As for `CN1CCN(c2cccc3nc(CN(Cc4cccc(F)c4)[C@H]4CCCc5cccnc54)cn23)CC1` [Example 61, (8S)—N-[(3-Fluorophenyl)methyl]-N-{[5-(4-methyl-1-piperazinyl)imidazo[1,2-a]pyridin-2-yl]methyl}-5,6,7,8-tetrahydro-8-quinolinamine], the IC50 was under 100 nM.

For the molecule `CN1CCN(c2cccc3nc(CN(Cc4ccc(F)cc4)[C@H]4CCCc5cccnc54)cn23)CC1` [Example 62, (8S)—N-[(4-Fluorophenyl)methyl]-N-{[5-(4-methyl-1-piperazinyl)imidazo[1,2-a]pyridin-2-yl]methyl}-5,6,7,8-tetrahydro-8-quinolinamine], the IC50 is under 100 nM.

Consider `CN1CCN(c2cccc3nc(CN(Cc4ccccc4Br)[C@H]4CCCc5cccnc54)cn23)CC1` [Example 63, (8S)—N-[(2-Bromophenyl)methyl]-N-{[5-(4-methyl-1-piperazinyl)imidazo[1,2-a]pyridin-2-yl]methyl}-5,6,7,8-tetrahydro-8-quinolinamine], for which the IC50 lay in the range of 100 to 500 nM.

Consider `CN1CCN(c2cccc3nc(CN(Cc4cccc(Br)c4)[C@H]4CCCc5cccnc54)cn23)CC1` [Example 64, (8S)—N-[(3-Bromophenyl)methyl]-N-{[5-(4-methyl-1-piperazinyl)imidazo[1,2-a]pyridin-2-yl]methyl}-5,6,7,8-tetrahydro-8-quinolinamine], for which the IC50 is under 100 nM.

As to `CN1CCN(c2cccc3nc(CN(Cc4ccc(Br)cc4)[C@H]4CCCc5cccnc54)cn23)CC1` [Example 65, (8S)—N-[(4-Bromophenyl)methyl]-N-{[5-(4-methyl-1-piperazinyl)imidazo[1,2-a]pyridin-2-yl]methyl}-5,6,7,8-tetrahydro-8-quinolinamine], the IC50 is under 100 nM.

On to `Cc1ccccc1CN(Cc1cn2c(N3CCN(C)CC3)cccc2n1)[C@H]1CCCc2cccnc21` [Example 66, (8S)—N-[(2-Methylphenyl)methyl]-N-{[5-(4-methyl-1-piperazinyl)imidazo[1,2-a]pyridin-2-yl]methyl}-5,6,7,8-tetrahydro-8-quinolinamine], for which the IC50 is under 100 nM.

For the molecule `Cc1cccc(CN(Cc2cn3c(N4CCN(C)CC4)cccc3n2)[C@H]2CCCc3cccnc32)c1` [Example 67, (8S)—N-[(3-Methylphenyl)methyl]-N-{[5-(4-methyl-1-piperazinyl)imidazo[1,2-a]pyridin-2-yl]methyl}-5,6,7,8-tetrahydro-8-quinolinamine], the IC50 was under 100 nM.

For `Cc1ccc(CN(Cc2cn3c(N4CCN(C)CC4)cccc3n2)[C@H]2CCCc3cccnc32)cc1` [Example 68, (8S)—N-[(4-Methylphenyl)methyl]-N-{[5-(4-methyl-1-piperazinyl)imidazo[1,2-a]pyridin-2-yl]methyl}-5,6,7,8-tetrahydro-8-quinolinamine], the IC50 is under 100 nM.

With `CN1CCN(c2cccc3nc(CN(Cc4ccccc4C(F)(F)F)[C@H]4CCCc5cccnc54)cn23)CC1` [Example 69, (8S)—N-{[5-(4-Methyl-1-piperazinyl)imidazo[1,2-a]pyridin-2-yl]methyl}-N-{[2-(trifluoromethyl)phenyl]methyl}-5,6,7,8-tetrahydro-8-quinolinamine], the IC50 lay within 100 to 500 nM.

Regarding `CN1CCN(c2cccc3nc(CN(Cc4cccc(C(F)(F)F)c4)[C@H]4CCCc5cccnc54)cn23)CC1` [Example 70, (8S)—N-{[5-(4-Methyl-1-piperazinyl)imidazo[1,2-a]pyridin-2-yl]methyl}-N-{[3-(trifluoromethyl)phenyl]methyl}-5,6,7,8-tetrahydro-8-quinolinamine], the IC50 was under 100 nM.

For the molecule `CN1CCN(c2cccc3nc(CN(Cc4ccc(C(F)(F)F)cc4)[C@H]4CCCc5cccnc54)cn23)CC1` [Example 71, (8S)—N-{[5-(4-Methyl-1-piperazinyl)imidazo[1,2-a]pyridin-2-yl]methyl}-N-{[4-(trifluoromethyl)phenyl]methyl}-5,6,7,8-tetrahydro-8-quinolinamine], the IC50 is under 100 nM.

Take `COc1ccccc1CN(Cc1cn2c(N3CCN(C)CC3)cccc2n1)[C@H]1CCCc2cccnc21` [Example 72, (8S)—N-{[2-(Methyloxy)phenyl]methyl}-N-{[5-(4-methyl-1-piperazinyl)imidazo[1,2-a]pyridin-2-yl]methyl}-5,6,7,8-tetrahydro-8-quinolinamine]: the IC50 was under 100 nM.

As for `COc1cccc(CN(Cc2cn3c(N4CCN(C)CC4)cccc3n2)[C@H]2CCCc3cccnc32)c1` [Example 73, (8S)—N-{[3-(Methyloxy)phenyl]methyl}-N-{[5-(4-methyl-1-piperazinyl)imidazo[1,2-a]pyridin-2-yl]methyl}-5,6,7,8-tetrahydro-8-quinolinamine], the IC50 is under 100 nM.
